The text below walks through data of PubChem BioAssay AID1259407 (Chemical Carcinogenesis Research Information System (CCRIS), 2018).

The subject of this data set is CCRIS mutagenicity, Ames/micronucleus/aberration tests. Nature of the data set: CCRIS mutagenicity studies. The following applies: Test System: AMES SALMONELLA TYPHIMURIUM
Setting [1] is: Strain/Indicator: TA98, Metabolic Activation: NONE, Method: PREINCUBATION
Where [2] appears, read: Strain/Indicator: TA100, Metabolic Activation: NONE, Method: PREINCUBATION
Setting [3] is: Strain/Indicator: TA98, Metabolic Activation: NONE, Method: STANDARD PLATE.
Setting [4] is: Strain/Indicator: TA98, Metabolic Activation: RAT, LIVER, S-9, AROCLOR 1254, Method: STANDARD PLATE.
The mark [5] stands for this setting: Strain/Indicator: TA100, Metabolic Activation: NONE, Method: STANDARD PLATE.
Where [6] appears, read: Strain/Indicator: TA100, Metabolic Activation: RAT, LIVER, S-9, AROCLOR 1254, Method: STANDARD PLATE.
The mark [7] stands for this setting: Strain/Indicator: TA1535, Metabolic Activation: NONE, Method: STANDARD PLATE.
The mark [8] stands for this setting: Strain/Indicator: TA1537, Metabolic Activation: NONE, Method: STANDARD PLATE.
[9] abbreviates: Strain/Indicator: TA1535, Metabolic Activation: RAT, LIVER, S-9, AROCLOR 1254, Method: STANDARD PLATE.
Where [10] appears, read: Strain/Indicator: TA1537, Metabolic Activation: RAT, LIVER, S-9, AROCLOR 1254, Method: STANDARD PLATE.
Where [11] appears, read: Strain/Indicator: TA1538, Metabolic Activation: NONE, Method: STANDARD PLATE.
The mark [12] stands for this setting: Strain/Indicator: TA1538, Metabolic Activation: RAT, LIVER, S-9, AROCLOR 1254, Method: STANDARD PLATE.

Activity calls are given as the source filed them. The rule behind the calls is not given here.

`c1ccc(Oc2ccccc2)cc1`: the mutagenic call is “inactive; negative” (Strain/Indicator: TA98, Metabolic Activation: HAMSTER, LIVER, S-9, AROCLOR 1254, Method: PREINCUBATION); “inactive; negative” under setting [1]; “inactive; negative” (Strain/Indicator: TA98, Metabolic Activation: RAT, LIVER, S-9, AROCLOR 1254, Method: PREINCUBATION); “inactive; negative” (Strain/Indicator: TA100, Metabolic Activation: HAMSTER, LIVER, S-9, AROCLOR 1254, Method: PREINCUBATION); “inactive; negative” under setting [2]; “inactive; negative” (Strain/Indicator: TA100, Metabolic Activation: RAT, LIVER, S-9, AROCLOR 1254, Method: PREINCUBATION). Moreover, the mutagenic call by setting is: (Strain/Indicator: TA1535, Metabolic Activation: HAMSTER, LIVER, S-9, AROCLOR 1254, Method: PREINCUBATION) “inactive; negative”; (Strain/Indicator: TA1535, Metabolic Activation: NONE, Method: PREINCUBATION) “inactive; negative”; (Strain/Indicator: TA1535, Metabolic Activation: RAT, LIVER, S-9, AROCLOR 1254, Method: PREINCUBATION) “inactive; negative”; (Strain/Indicator: TA1537, Metabolic Activation: HAMSTER, LIVER, S-9, AROCLOR 1254, Method: PREINCUBATION) “inactive; negative”; (Strain/Indicator: TA1537, Metabolic Activation: NONE, Method: PREINCUBATION) “inactive; negative”; (Strain/Indicator: TA1537, Metabolic Activation: RAT, LIVER, S-9, AROCLOR 1254, Method: PREINCUBATION) “inactive; negative”.

Take `CNP(=S)(N1CC1)N1CC1`: the mutagenic call (Strain/Indicator: G46, Metabolic Activation: HOST MEDIATED, Method: STANDARD PLATE) is “active; positive”.

On to `CCCCNCCCNCCCNC(=O)c1csc(-c2csc(CCNC(=O)C(NC(=O)C(C)C(O)C(C)NC(=O)C(NC(=O)c3nc(C(CC(N)=O)NCC(N)C(N)=O)nc(N)c3C)C(OC3OC(CO)C(O)C(O)C3OC3OC(CO)C(O)C(OC(N)=O)C3O)c3cnc[nH]3)C(C)O)n2)n1` (stereo not drawn), for which, where the note is “Strain/Indicator: TA102, Metabolic Activation: NONE, Method: PREINCUBATION”, the mutagenic call was “active; positive”.

Take `O=C(c1ccc([N+](=O)[O-])cc1)[C@@H]1O[C@@H]1c1ccccc1`: the mutagenic call is “inactive; negative” under setting [3], “inactive; negative” under setting [4], “active; positive” under setting [5] and “active; positive” under setting [6].

As to `COP(=O)(OC)C(OC(=O)CCl)C(Cl)(Cl)Cl` (stereo not drawn), the mutagenic call under setting [3] was “inactive; negative”; the mutagenic call (Strain/Indicator: TA98, Metabolic Activation: RAT, LIVER, S-9, AROCLOR, Method: STANDARD PLATE) is “inactive; negative”; the mutagenic call under setting [5] is “inactive; negative”; the mutagenic call (Strain/Indicator: TA100, Metabolic Activation: RAT, LIVER, S-9, AROCLOR, Method: STANDARD PLATE) is “inactive; negative”; the mutagenic call under setting [7] was “inactive; negative”; the mutagenic call (Strain/Indicator: TA1535, Metabolic Activation: RAT, LIVER, S-9, AROCLOR, Method: STANDARD PLATE) is “inactive; negative”. In addition, the mutagenic call under setting [8] was “inactive; negative” and the mutagenic call (Strain/Indicator: TA1537, Metabolic Activation: RAT, LIVER, S-9, AROCLOR, Method: STANDARD PLATE) is “inactive; negative”.

Consider `Cc1cc(N)c([N+](=O)[O-])c(C)c1N`, for which the mutagenic call is “inactive; negative” under setting [3]; “inactive; negative” under setting [4]; “inactive; negative” under setting [5]; “inactive; negative” under setting [6]; “inactive; negative” under setting [7]; “inactive; negative” under setting [9]. In addition, the mutagenic call is “inactive; negative” under setting [8], “inactive; negative” under setting [10], “inactive; negative” under setting [11] and “inactive; negative” under setting [12].

On to `C=C1[C@@H]2CC[C@H]3[C@]4(C)CCC[C@@](C)(C(=O)O)[C@H]4CC[C@]3(C2)[C@H]1O`, for which the mutagenic call (Strain/Indicator: TM677, Metabolic Activation: RAT, LIVER, S-9, AROCLOR 1254, Method: PREINCUBATION) is “inactive; negative”.

Turning to `O=Nn1cnc(CC(=O)NO)c1`, the mutagenic call reads like this: under setting [1], “active; positive”; under setting [2], “active; positive”.

Regarding `O=C(O)Cc1c[nH]c2ccc(O)cc12`, the mutagenic call under setting [2] is “inactive; negative”.

Take `CCC(C)(C)OC`: the mutagenic call under setting [3] is “inactive; negative”; the mutagenic call under setting [4] was “inactive; negative”; the mutagenic call under setting [5] is “inactive; negative”; the mutagenic call under setting [6] was “inactive; negative”; the mutagenic call under setting [7] was “inactive; negative”; the mutagenic call under setting [9] was “inactive; negative”. Moreover, the mutagenic call runs as follows: under setting [8], “inactive; negative”; under setting [10], “inactive; negative”; under setting [11], “inactive; negative”; under setting [12], “inactive; negative”.

Regarding `CC(C)=CC1C(C(=O)OCN2C(=O)C3=C(CCCC3)C2=O)C1(C)C` (stereo not drawn), the mutagenic call was “active; positive” (Strain/Indicator: TA98); “active; positive” (Strain/Indicator: TA98, Metabolic Activation: NONE); “inactive; negative” (Strain/Indicator: TA98, Metabolic Activation: NONE, Method: MICROSUSPENSION); “inactive; negative” (Strain/Indicator: TA98, Metabolic Activation: S-9, Method: MICROSUSPENSION); “active; positive” (Strain/Indicator: TA100); “inactive; negative” (Strain/Indicator: TA100, Metabolic Activation: NONE). Also, the mutagenic call (Strain/Indicator: TA100, Metabolic Activation: NONE, Method: MICROSUSPENSION) was “inactive; negative” and the mutagenic call (Strain/Indicator: TA100, Metabolic Activation: S-9, Method: MICROSUSPENSION) was “inactive; negative”.
